Tests used:
[1] = system: rabbit serum obtained by immunizing a rabbit with the SARS-CoV strain Frankfurt 1; format: binding; design: Binding of a rabbit serum to linear peptides / Binding of a rabbit serum to looped peptides / Rabbit serum linear peptides / Rabbit serum looped peptides / Binding of a rabbit serum to linear peptides of protein N of SARS-CoV Urbani (Rabbit serum linear peptides) / Binding of a rabbit serum to looped/cyclic peptides of protein N of SARS-CoV Urbani (Rabbit serum looped peptides): unit not given here
[2] = system: control sera (pooled serum of ten healthy LUMC hospital workers; commercial negative donor pooled serum from the Dutch bloodbank); format: binding, human; design: Binding of Control serum LUMC to linear peptides / Binding of Control serum Blood-bank to linear peptides / Binding of Control serum LUMC to looped peptides / Binding of Control Serum Blood-Bank to Looped peptides / Binding of Control serum LUMC to linear peptides of the protein M of SARS-CoV Urbani / Binding of Control serum Blood-bank to linear peptides of the protein M of SARS-CoV Urbani / Binding of Control serum LUMC to looped peptides of the protein M of SARS-CoV Urbani / Binding of Control Serum Blood-Bank to Looped peptides of the protein M of SARS-CoV Urbani: unit not given here
[3] = system: antibodies in sera from SARS patients (sera 1a, 1b, 2, 6, 37, 62, London, SARS-yellow, SARS-green); format: binding, human; design: Binding of serum 6 to linear peptides of protein X1 of SARS-CoV Urbani / Binding of serum 37 to linear peptides of protein X1 of SARS-CoV Urbani / Binding of serum 6 to looped/cyclic peptide (PEPSCAN-ELISA) / Binding of serum 37 to looped/cyclic peptide (PEPSCAN-ELISA) / Binding of serum 37 to looped/cyclic peptides of protein X1 of SARS-CoV Urbani / Binding of serum 6 to linear peptides of protein X2 / Binding of serum 37 to linear peptides of protein X2 / Binding of serum 37 to looped/cyclic peptides of protein X2 of SARS-CoV Urbani / Binding of serum 6 to linear peptides of protein M of SARS-CoV Urbani / Binding of serum 37 to linear peptides of protein M of SARS-CoV Urbani / Binding of serum 6 to looped/cyclic peptides of protein M of SARS-CoV Urbani / Binding of serum 37 to looped/cyclic peptides of protein M of SARS-CoV Urbani / Binding of serum 6 to linear peptides of protein X3 of SARS-CoV Urbani / Binding of serum 37 to linear peptides of protein X3 of SARS-CoV Urbani / Binding of serum 37 to looped/cyclic peptides of protein X3 of SARS-CoV Urbani / Binding of serum 6 to linear peptides of protein X4 of SARS-CoV Urbani / Binding of serum 37 to linear peptides of protein X4 of SARS-CoV Urbani / Binding of serum 37 to looped/cyclic peptides of protein X4 of SARS-CoV Urbani / Binding of serum 6 to linear peptides of protein X5 of SARS-CoV Urbani / Binding of serum 37 to linear peptides of protein X5 of SARS-CoV Urbani / Binding of serum 37 to looped/cyclic peptides of protein X5 of SARS-CoV Urbani / Binding of serum 6 to linear peptides of protein N of SARS-CoV Urbani / Binding of serum 37 to linear peptides of protein N of SARS-CoV Urbani / Binding of serum 6 to linear peptide (PEPSCAN-ELISA) / Binding of serum 1a to looped/cyclic peptides of protein N of SARS-CoV Urbani / Binding of serum 1b to looped/cyclic peptides of protein N of SARS-CoV Urbani / Binding of serum 2 to looped/cyclic peptides of protein N of SARS-CoV Urbani / Binding of serum 6 to looped/cyclic peptides of protein N of SARS-CoV Urbani / Binding of serum 37 to looped/cyclic peptides of protein N of SARS-CoV Urbani / Binding of serum 62 to looped/cyclic peptides of protein N of SARS-CoV Urbani / Binding of serum London to looped/cyclic peptides of protein N of SARS-CoV Urbani / Binding of serum SARS-green to looped/cyclic peptides of protein N of SARS-CoV Urbani: unit not given here
[4] = system: recombinant human anti-SARS-CoV antibody 03-018; format: binding; design: Binding of antibody 03-018 to linear peptides of the N protein of SARS-CoV Urbani / Binding of antibody 03-018 to looped/cyclic peptides of the N protein of SARS-CoV Urbani: unit not given here

Sequence | Binding of a rabbit serum to linear peptides of protein N of SARS-CoV Urbani (Rabbit serum linear peptides) [1] | Binding of a rabbit serum to looped/cyclic peptides of protein N of SARS-CoV Urbani (Rabbit serum looped peptides) [1] | Binding of Control Serum Blood-Bank to Looped peptides [2] | Binding of Control serum Blood-bank to linear peptides [2] | Binding of Control serum LUMC to linear peptides [2] | Binding of Control serum LUMC to looped peptides [2] | Binding of serum 1a to linear peptides of protein N of SARS-CoV Urbani [3] | Binding of serum 1a to looped/cyclic peptides of protein N of SARS-CoV Urbani [3] | Binding of serum 1b to linear peptides of protein N of SARS-CoV Urbani [3] | Binding of serum 1b to looped/cyclic peptides of protein N of SARS-CoV Urbani [3] | Binding of serum 2 to linear peptides of protein N of SARS-CoV Urbani [3] | Binding of serum 2 to looped/cyclic peptides of protein N of SARS-CoV Urbani [3] | Binding of serum 6 to looped/cyclic peptides of protein N of SARS-CoV Urbani [3] | Binding of serum 37 to looped/cyclic peptides of protein N of SARS-CoV Urbani [3] | Binding of serum 62 to looped/cyclic peptides of protein N of SARS-CoV Urbani [3] | Binding of serum London to looped/cyclic peptides of protein N of SARS-CoV Urbani [3] | Binding of serum SARS-green to looped/cyclic peptides of protein N of SARS-CoV Urbani [3] | Binding of serum SARS-yellow to looped/cyclic peptides of protein N of SARS-CoV Urbani [3] | Binding of antibody 03-018 to linear peptides of the N protein of SARS-CoV Urbani [4] | Binding of antibody 03-018 to looped/cyclic peptides of the N protein of SARS-CoV Urbani [4] | further results
QDLIRQGTDYKHWPQ | 0.1 | 0.2 | 0.6 | 0.7 | 0.6 | 0.5 | 0.2 | 0.3 | 0.1 | 0.2 | 0.2 | 0.3 | 0.2 | 0.5 | 0.4 | 0.4 | 0.2 | 0.3 | 0.1 | 0.2 | Binding of serum 6 to linear peptides of protein N of SARS-CoV Urbani [3]: 0.2; Binding of serum 37 to linear peptides of protein N of SARS-CoV Urbani [3]: 0.6; Binding of serum 62 to linear peptides of protein N of SARS-CoV Urbani [3]: 0.5; Binding of serum London to linear peptides of protein N of SARS-CoV Urbani [3]: 0.4; Binding of serum SARS-green to linear peptides of protein N of SARS-CoV Urbani [3]: 0.2; Binding of serum SARS-yellow to linear peptides of protein N of SARS-CoV Urbani [3]: 0.4
QFAPSASAFFGMSRI | 0.1 | 0.4 |  |  |  |  | 0.2 | 0.4 | 0.1 | 0.2 | 0.1 | 0.4 | 0.2 | 0.6 | 0.7 | 0.4 | 0.5 | 0.3 | 0.1 | 0.3 | Control Serum Blood-Bank Looped peptides [2]: 0.6; Control serum Blood-bank linear peptides [2]: 0.7; Control serum LUMC linear peptides [2]: 0.5; Control serum LUMC looped peptides [2]: 0.6; Binding of serum 6 to linear peptides of protein N of SARS-CoV Urbani [3]: 0.1; Binding of serum 37 to linear peptides of protein N of SARS-CoV Urbani [3]: 0.4; Binding of serum 62 to linear peptides of protein N of SARS-CoV Urbani [3]: 0.4; Binding of serum London to linear peptides of protein N of SARS-CoV Urbani [3]: 0.4; Binding of serum SARS-green to linear peptides of protein N of SARS-CoV Urbani [3]: 0.1; Binding of serum SARS-yellow to linear peptides of protein N of SARS-CoV Urbani [3]: 0.5
QGLPNNTASWFTALT | 0.1 | 0.6 | 0.8 | 0.6 | 0.7 | 0.8 | 0.2 | 0.4 | 0.1 | 0.3 | 0.2 | 0.5 | 0.3 | 0.7 | 0.7 | 0.5 | 0.6 | 0.7 | 0.1 | 0.3 | Binding of serum 6 to linear peptides of protein N of SARS-CoV Urbani [3]: 0.1; Binding of serum 37 to linear peptides of protein N of SARS-CoV Urbani [3]: 0.6; Binding of serum 62 to linear peptides of protein N of SARS-CoV Urbani [3]: 0.7; Binding of serum London to linear peptides of protein N of SARS-CoV Urbani [3]: 0.4; Binding of serum SARS-green to linear peptides of protein N of SARS-CoV Urbani [3]: 0.2; Binding of serum SARS-yellow to linear peptides of protein N of SARS-CoV Urbani [3]: 0.6
QGNFGDQDLIRQGTD | 0.2 | 0.4 | 0.5 | 0.6 | 0.7 | 0.6 |  | 0.4 |  | 0.3 |  | 0.3 | 0.2 | 0.6 | 0.5 | 0.4 | 0.7 | 0.6 | 0.1 | 0.2 | Binding of serum 1a to linear peptide (PEPSCAN-ELISA) [3]: 0.3; Binding of serum 1b to linear peptide (PEPSCAN-ELISA) [3]: 0.2; Binding of serum 2 to linear peptide (PEPSCAN-ELISA) [3]: 0.2; Binding of serum 6 to linear peptide (PEPSCAN-ELISA) [3]: 0.2; Binding of serum 37 to linear peptide (PEPSCAN-ELISA) [3]: 0.8; Binding of serum 62 to linear peptide (PEPSCAN-ELISA) [3]: 0.8; Binding of serum London to linear peptide (PEPSCAN-ELISA) [3]: 0.5; Binding of serum SARS-green to linear peptide (PEPSCAN-ELISA) [3]: 0.6; Binding of serum SARS-yellow to linear peptide (PEPSCAN-ELISA) [3]: 0.8
QGQTVTKKSAAEASK | 0.2 | 0.2 | 0.4 | 1.1 | 1.0 | 0.4 |  | 0.2 |  | 0.1 |  | 0.2 | 0.1 | 0.4 | 0.2 | 0.3 | 0.1 | 0.2 | 0.1 | 0.2 | Recognition of the peptide by sera of SARS-CoV infected individuals, and form (linear, looped/cyclic) in which it is recognized [3]: recognized in linear form

Reference: patent US20070128217A1 (priority 2003, published 2007)
